What was measured:
[1] = Liver pharmacokinetics following a single oral dose in CD-1 mice; format: in vivo; conditions: single oral dose 25 mg/kg in PEG 200, CD-1 male mice; given at 1 μmol/kg
Outline: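 Male CD-1 mice given 25 mg/kg test compound orally in PEG 200; liver snap-frozen in situ at 4, 12 and 24 h (3 per time). Liver 2′-MeGTP measured after TCA homogenization and anion-exchange SPE by LC-MS/MS, calibration 50–50000 pmol/g liver.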

[2] = Stability in simulated intestinal fluid; format: in vitro ADME; conditions: 100 μM, 2 hours at 37° C., percent of the peak area at time zero
Outline: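 Compounds at 100 μM final, in duplicate, kept 2 h at 37° C in USP gastric fluid (pepsin) or intestinal fluid (pancreatin). Quenched with cold acetonitrile, supernatant analysed by C-18 HPLC, UV 252 nm. Remaining compound expressed as percent of time-zero peak area.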

[3] = tested on: fresh human hepatocytes; experiment: Release of active metabolite in fresh human hepatocytes; format: in vitro ADME; conditions: 10 μM compound
Outline: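 Overnight-acclimatized hepatocytes (0.8 million cells/well human, 0.5 million mouse) incubated at 37 °C with 10 μM test compound (0.1% DMSO). Sampled at 6, 24, 48 h (human) or 1, 4, 8, 12, 24 h (mouse); cells washed, extracted in cold 70% methanol, intracellular content quantified by LC-MS/MS with internal standard.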

CCOc1nc(N)nc2c1ncn2[C@@H]1O[C@@H]2COP(=O)(OCCCC(=O)OC(C)C)O[C@H]2[C@@]1(C)F (single isomer, unassigned) [Compound 20 Diastereomer 1]
Ms Liver 2′-MeGTP AUC [1]: 410 pmol · hr/g at 1 μmol/kg
Stability SIF [2]: 95%
FHH TP Cmax ([3]; fresh human hepatocytes): 88 pmol/mill cells
FHH TP AUC ([3]; fresh human hepatocytes, 6, 24 and 48 hours): 2393 pmol · hr/mill cells

From US9296778B2, “3′,5′-cyclic phosphate prodrugs for HCV infection” (Idenix Pharmaceuticals, Inc., priority 2012, dated 2016)
